Experimental data: article PMC8159961, “Exploring protein hotspots by optimized fragment pharmacophores” (Nature Communications, 2021)
Where “and” joins values, the source holds several entries; their conditions need not be identical. Identical values can stand only once. Entries after “also recorded” stand apart in the source; their conditions may differ. Like-named read-outs stand apart in the source and are kept apart here.

Experiments:
[1] = target: T1, recombinant SETD2 (Homo sapiens, UniProt Q9BYW2); assay: SETD2 Chemiluminescence assay (H3K36 tri-methylation); assay type: biochemical; details: for SETD2 signal normalised to positive control and internally to compound: nM], replicates
T1 construct: purchased BPS Bioscience 52060
T1 sequence (Q9BYW2 1418-1714 limits assumed): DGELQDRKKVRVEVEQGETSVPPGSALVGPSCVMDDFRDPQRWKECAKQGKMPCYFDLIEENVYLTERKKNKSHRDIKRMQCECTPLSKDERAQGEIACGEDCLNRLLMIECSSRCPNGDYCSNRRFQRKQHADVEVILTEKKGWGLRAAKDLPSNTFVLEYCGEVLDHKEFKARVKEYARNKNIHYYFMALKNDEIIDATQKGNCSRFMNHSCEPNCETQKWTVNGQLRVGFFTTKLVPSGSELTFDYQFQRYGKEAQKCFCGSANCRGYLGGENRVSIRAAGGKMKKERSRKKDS

[2] = target: T2, human 5-HT6 receptor (Homo sapiens, UniProt P50406); assay: GPCR radioligand binding assay, [3H]-LSD displacement, HEK293 membranes
T2 construct: expressed in transfected cells

[3] = test system: MOLM-13 leukemia cells; assay: Cell viability assay, CellTiter-Glo, 5 days; details: for normalized viability (0 = 0 % viability, 1 = 100 % viability): MOLM-13, nM], replicates
[4] = target: T3, human 5-HT7b receptor (Homo sapiens, UniProt P34969); assay: GPCR radioligand binding assay, [3H]-5-CT displacement, HEK293 membranes
T3 construct: expressed in transfected cells

[5] = target: T4, human thrombin (Homo sapiens, UniProt P00734); assay: Protease inhibitory assay, chromogenic substrate S-2238; assay type: biochemical; details: plate layout, label = plate position; Cheng-Prusoff, Km 2.6 µM; read-out: Thrombin Ki
T4 construct: human thrombin; purchased Sigma-Aldrich

[6] = target: T5, human 5-HT1A receptor (Homo sapiens, UniProt P08908); assay: GPCR radioligand binding assay, [3H]-8-OH-DPAT displacement, HEK293 membranes
T5 construct: expressed in transfected cells
T5 sequence (P08908 1-422): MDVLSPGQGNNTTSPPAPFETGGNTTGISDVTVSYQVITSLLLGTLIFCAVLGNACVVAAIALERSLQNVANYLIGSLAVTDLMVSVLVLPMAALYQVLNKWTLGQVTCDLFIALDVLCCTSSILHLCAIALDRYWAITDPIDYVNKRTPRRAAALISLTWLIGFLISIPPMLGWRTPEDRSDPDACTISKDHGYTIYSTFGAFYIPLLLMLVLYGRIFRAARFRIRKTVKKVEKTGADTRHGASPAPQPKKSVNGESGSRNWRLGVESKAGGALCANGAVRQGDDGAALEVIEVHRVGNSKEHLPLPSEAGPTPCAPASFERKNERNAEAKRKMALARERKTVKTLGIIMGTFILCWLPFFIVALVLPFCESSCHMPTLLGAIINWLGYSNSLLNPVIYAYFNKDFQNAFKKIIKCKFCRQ

[7] = test system: MV4-11 leukemia cells; assay: Cell viability assay, CellTiter-Glo, 5 days; details: for normalized viability (0 = 0 % viability, 1 = 100 % viability): MV4-11, nM], replicates
[8] = target: T6, SARS-CoV-2 NSP3 macrodomain (Severe acute respiratory syndrome coronavirus 2, UniProt P0DTD1); assay: X-ray fragment screening (XChem, crystal soaking); assay type: binding
[9] = target: T6, SARS-CoV-2 NSP3 macrodomain; assay: NSP3 macrodomain HTRF assay, displacement of ADP-ribose-conjugated biotin peptide; assay type: binding; details: HTRF assay, up to 5 mM concentration
[10] = test system: SARS-CoV-2; assay: microbe, parasite or virus in culture; assay type: cell-based; details: for EC50: Vero E6 cells, 48 h post infection, read-out: EC50, blocking SARS-CoV-2 replication; for antiviral activity in the cellular assay (in words): infected Vero E6 cells

T3 sequence (P34969 1-432): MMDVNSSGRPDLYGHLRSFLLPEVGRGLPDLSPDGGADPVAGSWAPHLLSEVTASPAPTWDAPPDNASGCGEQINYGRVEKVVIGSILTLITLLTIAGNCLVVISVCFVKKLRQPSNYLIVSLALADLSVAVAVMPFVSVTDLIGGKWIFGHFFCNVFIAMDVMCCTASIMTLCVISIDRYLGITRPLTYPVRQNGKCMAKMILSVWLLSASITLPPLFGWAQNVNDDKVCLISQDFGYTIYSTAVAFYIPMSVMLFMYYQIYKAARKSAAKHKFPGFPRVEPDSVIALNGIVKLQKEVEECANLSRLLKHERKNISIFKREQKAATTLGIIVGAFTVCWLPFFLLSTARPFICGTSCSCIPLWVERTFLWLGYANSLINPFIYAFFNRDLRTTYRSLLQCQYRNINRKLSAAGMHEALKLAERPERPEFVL
T2 sequence (P50406 whole entry): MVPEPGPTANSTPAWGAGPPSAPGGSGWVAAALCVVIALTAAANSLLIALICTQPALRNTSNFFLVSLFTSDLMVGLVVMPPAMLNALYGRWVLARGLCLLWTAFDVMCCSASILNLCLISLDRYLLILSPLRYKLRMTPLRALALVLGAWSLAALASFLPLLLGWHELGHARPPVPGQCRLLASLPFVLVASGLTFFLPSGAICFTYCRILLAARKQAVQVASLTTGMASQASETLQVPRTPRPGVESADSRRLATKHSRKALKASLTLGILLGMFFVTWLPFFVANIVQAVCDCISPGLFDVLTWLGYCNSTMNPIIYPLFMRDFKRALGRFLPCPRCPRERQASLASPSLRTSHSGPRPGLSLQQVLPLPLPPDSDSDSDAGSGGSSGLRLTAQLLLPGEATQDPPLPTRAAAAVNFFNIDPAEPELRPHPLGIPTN

For `CC1CCc2sc(C(=O)O)cc2C1` (stereo not drawn) [SX045], the IC50 ([1]; chemiluminescence-based enzymatic assay) was 300 µM, the “SETD2 signal normalised to positive control and internally to compound” value (“SETD2 signal normalised” for short) ([1]; fragment concentration 4.4 [log) was 0.78 and 0.88 and the “SETD2 signal normalised” value ([1]; fragment concentration 5 [log) was 0.71 and 0.90. The “SETD2 signal normalised” value ([1]; fragment concentration 5.3 [log) was 0.89 and 0.66, the “SETD2 signal normalised” value ([1]; fragment concentration 5.6 [log) was 0.20 and 0.33 and the “SETD2 signal normalised” value ([1]; fragment concentration 5.9 [log) was 0.05 and 0.21. It also gave an inhibition at 10 µM ([2]; 10 µM, read-out: 5-HT6 % Inhibition by plate position) of 45%, an inhibition at 10 µM ([2]; 5-HT6, average of exp_1 and exp_2, read-out: %inh 5-HT6 average) of 45% and an inhibition at 10 µM ([2]; 5-HT6, average, values below 0 and above 100% were set as 0 and 100, read-out: %inh 5-HT6 corrected*) of 45%. For the same compound, the inhibition at 10 µM ([2]; 5-HT6, replicate exp_1, read-out: %inh 5-HT6 exp_1) was 52%, the inhibition at 10 µM ([2]; 5-HT6, replicate exp_2, read-out: %inh 5-HT6 exp_2) was 38% and the “normalized viability (0 = 0 % viability, 1 = 100 % viability)” value ([3]; concentration 2.18 [log) was 1.039 and 0.9762 and 0.9421. The “normalized viability (0 = 0 % viability, 1 = 100 % viability)” value ([3]; concentration 2.66 [log) was 1.004 and 0.9844 and 0.9162, the “normalized viability (0 = 0 % viability, 1 = 100 % viability)” value ([3]; concentration 3.14 [log) was 0.9835 and 0.9812 and 0.9002 and the “normalized viability (0 = 0 % viability, 1 = 100 % viability)” value ([3]; concentration 3.61 [log) was 0.9836 and 0.9626 and 0.8884. For the same compound, the “normalized viability (0 = 0 % viability, 1 = 100 % viability)” value ([3]; concentration 4.09 [log) was 0.9563 and 0.9463 and 0.9164, the “normalized viability (0 = 0 % viability, 1 = 100 % viability)” value ([3]; concentration 4.57 [log) was 0.8812 and 0.9087 and 0.8366 and the “normalized viability (0 = 0 % viability, 1 = 100 % viability)” value ([3]; concentration 5.05 [log) was 0.7992 and 0.5481 and 0.7667. For the same compound, the “normalized viability (0 = 0 % viability, 1 = 100 % viability)” value ([3]; concentration 5.52 [log) was 0.5003 and 0.4827 and 0.2594, the “normalized viability (0 = 0 % viability, 1 = 100 % viability)” value ([3]; concentration 6 [log) was 0.05284 and 0.001062 and 0.1076 and the “IC50 cell viability / anti-proliferative EC50” value ([3]; MOLM-13 cells, 5 days after treatment) was 333 µM. For the same compound, the inhibition at 10 µM ([4]; 10 µM, read-out: 5-HT7 % Inhibition by plate position) was 4.44%, the inhibition at 10 µM ([4]; 5-HT7, average of exp_1 and exp_2, read-out: %inh 5-HT7 average) was 4.44% and the inhibition at 10 µM ([4]; 5-HT7, average, values below 0 and above 100% were set as 0 and 100, read-out: %inh 5-HT7 corrected*) was 4.44%. The inhibition at 10 µM ([4]; 5-HT7, replicate exp_1, read-out: %inh 5-HT7 exp_1) was -4.73%, the inhibition at 10 µM ([4]; 5-HT7, replicate exp_2, read-out: %inh 5-HT7 exp_2) was 14% and the Ki [5] was 65 µM. For the same compound, the inhibition at 10 µM ([6]; 10 µM, read-out: 5-HT1A % Inhibition by plate position) was 0%, the inhibition at 10 µM ([6]; 5-HT1A, average of exp_1 and exp_2, read-out: %inh 5-HT1A average) was -1% and the inhibition at 10 µM ([6]; 5-HT1A, average, values below 0 and above 100% were set as 0 and 100, read-out: %inh 5-HT1A corrected*) was 0%. The inhibition at 10 µM ([6]; 5-HT1A, replicate exp_1, read-out: %inh 5-HT1A exp_1) was -0.0944%, the inhibition at 10 µM ([6]; 5-HT1A, replicate exp_2, read-out: %inh 5-HT1A exp_2) was -2% and the “normalized viability (0 = 0 % viability, 1 = 100 % viability)” value ([7]; concentration 2.18 [log) was 0.9962 and 1.163 and 0.9666. The “normalized viability (0 = 0 % viability, 1 = 100 % viability)” value ([7]; concentration 2.66 [log) was 0.9943 and 0.9504 and 0.9572, the “normalized viability (0 = 0 % viability, 1 = 100 % viability)” value ([7]; concentration 3.14 [log) was 0.9413 and 0.941 and 0.9817 and the “normalized viability (0 = 0 % viability, 1 = 100 % viability)” value ([7]; concentration 3.61 [log) was 0.7873 and 0.9285 and 0.9554. The “normalized viability (0 = 0 % viability, 1 = 100 % viability)” value ([7]; concentration 4.09 [log) was 0.7566 and 0.9251 and 0.9854, the “normalized viability (0 = 0 % viability, 1 = 100 % viability)” value ([7]; concentration 4.57 [log) was 0.732 and 0.9248 and 0.8741 and the “normalized viability (0 = 0 % viability, 1 = 100 % viability)” value ([7]; concentration 5.05 [log) was 0.7081 and 0.7223 and 0.7408. The “normalized viability (0 = 0 % viability, 1 = 100 % viability)” value ([7]; concentration 5.52 [log) was 0.4531 and 0.4099 and 0.4328, the “normalized viability (0 = 0 % viability, 1 = 100 % viability)” value ([7]; concentration 6 [log) was 0.0008148 and 0.0004041 and 0.01018 and the “IC50 cell viability / anti-proliferative EC50” value ([7]; MV4-11 cells, 5 days after treatment) was 400 µM.
For `CC1C(=O)NC(=O)N1c1ccc(Cl)cc1` (stereo not drawn) [SX051], the “X-ray screen result, binding site” value [8] was “identified in the active site”, the “activity in the NSP3 enzyme assay (in words)” value [9] was “no activity” and the “Inhibition (%) of viral copy numbers” value ([10]; 10 uM, replicates) was 0% and 9.716% and 1.026%. For the same compound, the “viral copy numbers normalized to the control (untreated infected cells)” value (from here on “viral copy numbers normalized”) ([10]; 10 uM, replicates) was 2.076 and 0.9028 and 0.9897, the “Inhibition (%) of viral copy numbers” value ([10]; 100 uM, replicates) was 32.89% and 37.84% and the “viral copy numbers normalized” value ([10]; 100 uM, replicates) was 0.7145 and 0.6711 and 0.6216. For the same compound, the “Inhibition (%) of viral copy numbers” value ([10]; 250 uM, replicates) was 83.75% and 96.5% and 61.73%, the “viral copy numbers normalized” value ([10]; 250 uM, replicates) was 0.1625 and 0.03502 and 0.3827 and the “Inhibition (%) of viral copy numbers” value ([10]; 500 uM, replicates) was 86.97% and 88.23%. For the same compound, the “viral copy numbers normalized” value ([10]; 500 uM, replicates) was 0.2487 and 0.1303 and 0.1177, the “Inhibition (%) of viral copy numbers” value ([10]; 750 uM, replicates) was 96.17% and 94.15% and the “viral copy numbers normalized” value ([10]; 750 uM, replicates) was 0.05523 and 0.03827 and 0.05848. The “Inhibition (%) of viral copy numbers” value ([10]; 1000 uM, replicates) was 100% and 99.81%, the “viral copy numbers normalized” value ([10]; 1000 uM, replicates) was 0.003839 and 0 and 0.001919 and the inhibition at 100 µM ([10]; Severe acute respiratory syndrome coronavirus 2, Vero C1008, 100 uM, replicates, read-out: Inhibition (%) of viral copy numbers) was 28.5%. The inhibition at 500 µM ([10]; Severe acute respiratory syndrome coronavirus 2, Vero C1008, 500 uM, replicates, read-out: Inhibition (%) of viral copy numbers) was 75.1%, the inhibition at 750 µM ([10]; Severe acute respiratory syndrome coronavirus 2, Vero C1008, 750 uM, replicates, read-out: Inhibition (%) of viral copy numbers) was 94.5% and the inhibition at 1000 µM ([10]; Severe acute respiratory syndrome coronavirus 2, Vero C1008, 1000 uM, replicates, read-out: Inhibition (%) of viral copy numbers) was 99.6%. The EC50 ([10]; Severe acute respiratory syndrome coronavirus 2, Vero C1008, 48 h) was 136 µM, the EC50 [10] was 136 µM and the “antiviral activity in the cellular assay (in words)” value [10] was “high micromolar range; also recorded: Significant antiviral activities”.
In the case of `Clc1ccc2nnnn2n1` [SX054], the “X-ray screen result, binding site” value [8] is reported as “identified in the active site”, the “activity in the NSP3 enzyme assay (in words)” value [9] is reported as “no activity” and the “antiviral activity in the cellular assay (in words)” value [10] is reported as “inactive in cells”.
